Data taken from paper PMC12823391 (Nature, 2025).

Key:
[1] = target: T1, MBP–NLRX1 (87–975 amino acids) (Homo sapiens, UniProt Q86UT6); experiment: biotin-CoASH pull-down and competition with CoASH, immunoblot; assay type: binding; details: labelled compound; unlabelled CoASH as competitor
[2] = target: T1, MBP–NLRX1 (87–975 amino acids); experiment: competition of AcCoA with biotin-AcCoA pull-down, immunoblot; assay type: binding; details: unlabelled AcCoA as competitor
[3] = target: endogenous NLRX1 (HeLa cell lysate) (Homo sapiens, UniProt Q86UT6); experiment: cellular thermal shift assay on lysate, immunoblot; assay type: biochemical; details: 500 µM AcCoA, 44.6-65 °C, 3 min
endogenous NLRX1 (HeLa cell lysate), sequence (Q86UT6 87-975): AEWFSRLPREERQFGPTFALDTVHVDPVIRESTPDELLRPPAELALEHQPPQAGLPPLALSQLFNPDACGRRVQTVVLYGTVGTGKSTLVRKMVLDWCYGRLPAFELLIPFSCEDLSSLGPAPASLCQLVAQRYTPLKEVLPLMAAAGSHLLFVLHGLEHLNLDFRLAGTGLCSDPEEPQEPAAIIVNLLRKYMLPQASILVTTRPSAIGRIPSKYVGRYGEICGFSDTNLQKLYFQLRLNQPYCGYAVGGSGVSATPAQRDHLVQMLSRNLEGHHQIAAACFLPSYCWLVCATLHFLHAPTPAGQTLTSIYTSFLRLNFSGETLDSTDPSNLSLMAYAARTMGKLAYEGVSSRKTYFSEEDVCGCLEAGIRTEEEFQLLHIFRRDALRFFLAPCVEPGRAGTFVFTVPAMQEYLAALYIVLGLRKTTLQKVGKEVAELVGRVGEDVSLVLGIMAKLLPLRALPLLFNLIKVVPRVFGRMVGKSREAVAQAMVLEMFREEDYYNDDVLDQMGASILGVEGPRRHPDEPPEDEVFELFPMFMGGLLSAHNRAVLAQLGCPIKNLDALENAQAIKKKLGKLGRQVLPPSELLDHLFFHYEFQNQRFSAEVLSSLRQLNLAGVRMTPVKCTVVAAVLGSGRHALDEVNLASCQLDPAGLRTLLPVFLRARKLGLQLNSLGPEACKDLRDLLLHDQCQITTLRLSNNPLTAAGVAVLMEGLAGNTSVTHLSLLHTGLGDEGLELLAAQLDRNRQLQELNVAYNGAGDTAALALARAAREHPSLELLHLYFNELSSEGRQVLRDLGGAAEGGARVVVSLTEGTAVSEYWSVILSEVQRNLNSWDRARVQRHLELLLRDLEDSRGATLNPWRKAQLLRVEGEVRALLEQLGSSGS

[4] = target: T1, MBP–NLRX1 (87–975 amino acids); experiment: biotin-acyl-CoA pull-down, immunoblot; assay type: binding; details: labelled compound (biotin conjugate)

T1 sequence (Q86UT6 87-975): as above

CC(C)(COP(=O)(O)OP(=O)(O)OC[C@H]1O[C@@H](n2cnc3c(N)ncnc32)[C@H](O)[C@@H]1OP(=O)(O)O)[C@@H](O)C(=O)NCCC(=O)NCCS [CoASH]
biotin-CoASH pull-down and competition with CoASH, immunoblot [1]: CoASH was associated with recombinant NLRX1 to a lesser extent than AcCoA was

CC(=O)SCCNC(=O)CCNC(=O)[C@H](O)C(C)(C)COP(=O)(O)OP(=O)(O)OC[C@H]1O[C@@H](n2cnc3c(N)ncnc32)[C@H](O)[C@@H]1OP(=O)(O)O [AcCoA]
competition of AcCoA with biotin-AcCoA pull-down, immunoblot [2]: increasing concentrations of AcCoA competed with biotin–AcCoA for NLRX1 binding
thermal shift [3]: AcCoA addition substantially increased the stability of NLRX1 protein level compared with CoASH

CC(C)(COP(=O)(O)OP(=O)(O)OC[C@H]1O[C@@H](n2cnc3c(N)ncnc32)[C@H](O)[C@@H]1OP(=O)(O)O)[C@@H](O)C(=O)NCCC(=O)NCCSC(=O)CC(=O)O [malonyl-CoA]
biotin-acyl-CoA pull-down, immunoblot [4]: no interaction between recombinant NLRX1 and malonyl-CoA or succinyl-CoA was detected

CC(C)(COP(=O)(O)OP(=O)(O)OC[C@H]1O[C@@H](n2cnc3c(N)ncnc32)[C@H](O)[C@@H]1OP(=O)(O)O)[C@@H](O)C(=O)NCCC(=O)NCCSC(=O)CCC(=O)O [succinyl-CoA]
biotin-acyl-CoA pull-down, immunoblot [4]: no interaction between recombinant NLRX1 and malonyl-CoA or succinyl-CoA was detected
